Target: C5 (Homo sapiens, UniProt P01031)
Type: cell-based

C5, sequence (P01031 678-1676): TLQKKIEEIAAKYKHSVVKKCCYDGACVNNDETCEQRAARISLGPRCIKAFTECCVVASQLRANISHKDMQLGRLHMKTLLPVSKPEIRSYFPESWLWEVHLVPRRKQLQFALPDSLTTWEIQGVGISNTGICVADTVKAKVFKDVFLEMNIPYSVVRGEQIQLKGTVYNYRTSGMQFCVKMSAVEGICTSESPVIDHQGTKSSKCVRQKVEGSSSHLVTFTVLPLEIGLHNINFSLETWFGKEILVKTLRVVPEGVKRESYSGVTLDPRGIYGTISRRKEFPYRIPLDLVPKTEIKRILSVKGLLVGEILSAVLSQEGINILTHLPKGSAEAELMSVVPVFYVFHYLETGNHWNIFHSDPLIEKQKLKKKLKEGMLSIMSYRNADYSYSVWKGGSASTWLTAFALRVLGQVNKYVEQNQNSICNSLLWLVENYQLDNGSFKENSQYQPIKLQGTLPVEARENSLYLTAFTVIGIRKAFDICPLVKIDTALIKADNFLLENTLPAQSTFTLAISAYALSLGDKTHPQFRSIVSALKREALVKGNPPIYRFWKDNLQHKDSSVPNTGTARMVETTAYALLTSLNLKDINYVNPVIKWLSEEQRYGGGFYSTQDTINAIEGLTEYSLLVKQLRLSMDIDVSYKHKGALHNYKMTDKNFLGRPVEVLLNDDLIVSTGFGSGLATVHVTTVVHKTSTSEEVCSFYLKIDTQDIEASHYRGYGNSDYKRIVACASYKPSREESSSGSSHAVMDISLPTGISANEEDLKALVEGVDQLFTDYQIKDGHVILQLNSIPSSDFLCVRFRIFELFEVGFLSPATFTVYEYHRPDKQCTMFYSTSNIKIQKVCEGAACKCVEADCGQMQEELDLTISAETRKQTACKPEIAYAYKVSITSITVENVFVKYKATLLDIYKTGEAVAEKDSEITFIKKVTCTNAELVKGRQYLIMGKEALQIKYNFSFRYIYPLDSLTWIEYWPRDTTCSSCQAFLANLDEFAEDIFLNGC
C5, sequence (P01031 19-673): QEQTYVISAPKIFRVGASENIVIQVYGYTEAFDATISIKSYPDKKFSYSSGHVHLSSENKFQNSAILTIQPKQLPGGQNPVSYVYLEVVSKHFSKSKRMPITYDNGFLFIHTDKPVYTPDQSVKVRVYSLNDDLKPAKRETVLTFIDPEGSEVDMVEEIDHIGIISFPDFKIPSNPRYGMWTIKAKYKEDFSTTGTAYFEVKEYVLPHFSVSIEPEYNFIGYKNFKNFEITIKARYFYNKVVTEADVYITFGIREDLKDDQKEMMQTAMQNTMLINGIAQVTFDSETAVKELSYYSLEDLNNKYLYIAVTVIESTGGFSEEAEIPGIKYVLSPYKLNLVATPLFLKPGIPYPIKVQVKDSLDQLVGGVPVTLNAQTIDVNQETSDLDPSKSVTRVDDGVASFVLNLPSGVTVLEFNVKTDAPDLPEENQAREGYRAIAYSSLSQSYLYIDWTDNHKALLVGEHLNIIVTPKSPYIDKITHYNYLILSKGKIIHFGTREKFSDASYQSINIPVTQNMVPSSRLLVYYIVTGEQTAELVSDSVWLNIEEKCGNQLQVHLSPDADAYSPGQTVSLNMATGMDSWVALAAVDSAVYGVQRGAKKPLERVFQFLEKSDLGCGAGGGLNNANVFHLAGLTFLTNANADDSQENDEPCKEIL

Which “effect of C5 inhibition on MRB LCMV G neutralization” value does the source give for Eculizumab here?
Its value is “able to prevent viral neutralization”.
